This note sets out measurements from US20100287625A1, “VEGF VARIANTS” (UNIVERSITE DE LIEGE, priority 2006, published 2010).

Test [1] has as its system VEGF111 mRNA. Description: Induction of VEGF111 mRNA by genotoxic agents, RT-PCR. Format: cell-based, human. As for the experimental part: The indicated cells were treated with UV-B or camptothecin (30 mJ or 1 μM, respectively, except otherwise indicated) for 24 hours (except otherwise indicated) and VEGF and VEGF111 mRNA were measured by RT-PCR. (A) Polyacrylamide gel electrophoresis of RT-PCR products of VEGF (upper panel), VEGF111 (middle panel) and 28S rRNA (lower panel). Arrows in upper panel show the amplification product of VEGF111. The drawings on the right represent the exons (not to scale) in the corresponding VEGF isoforms. C: control cells; Cp: camptothecin treatment; M: 50 bp molecular weight marqueurs; R: cells rinsed with red phenol-free medium; UV: UV-B irradiation; -: non template control; arrowheads: RT-PCR products of synthetic RNA added to the test tubes to monitor reaction efficiency. (B to E) Dose-response analysis (B and D) and kinetic of induction (C and E) of VEGF111 mRNA level in MCF7 cells irradiated by UV-B (B and C) or treated with camptothecin (D and E). The expression of VEGF111 is expressed as the percentage of the signal corresponding to its mRNA taking the overall various VEGF isoforms mRNA, as measured in upper panel of (A) as 100%.
The RT-PCR amplifications were performed in an automated system (GeneAmp PCR System 2400 or 9600, Perkin Elmer, Norwalk, Conn.) using the GeneAmp Thermostable rTth Reverse Transcriptase RNA PCR kit (Perkin Elmer), 10 ng of total RNA and the different pairs of primers (5 pmole each, see Table 1). For amplification of VEGF isoforms mRNA and 28S rRNA, a known copy number of an internal standard RNA were included in each sample to monitor the efficiency of the reaction. The RT step (70° C., 15 min.) was followed by a 2 min. incubation at 95° C. for denaturation of RNA/DNA heteroduplexes, PCR amplification and final elongation for 2 min. at 72° C. The conditions for PCR amplification were 94° C. for 15 sec., 66° C. for 20 sec., 72° C. for 10 sec. for 28S rRNA and CD31 mRNA, or 94° C. for 20 sec, 66° C. for 30 sec. and 72° C. for one min for VEGF. RT-PCR products were resolved on 10% polyacrylamide gel and analysed using a Fluor-S MultiImager (BioRad) after staining with gelstar dye (FMC BioProducts, Rockland, Me.). Specific detection of VEGF111 isoform mRNA was performed as follow. mRNA was reverse transcribed using oligodT (Eurogentec, Seraing, Belgium) and Superscript II (Invitrogen) as described by the manufacturer. Reverse transcription (42° C., 50 min.) was followed by denaturation of the enzyme at 70° C. for 15 min. VEGF111 cDNA was amplified by PCR using 40 ng cDNA, the oligos P5 and P6 (Table 1) and Taq polymerase (Takara, Shiga, Japan). The conditions for PCR amplification were 94° C. for 15 sec., 70° C. for 20 sec.,72° C. for 10 sec.

Test [2] relates to VEGF111 mRNA. Put plainly: VEGF111 mRNA in blood cells treated ex vivo, RT-PCR. Format: cell-based, human. Particulars: blood cells of a healthy donor, 1 μM, 6 and 24 hours. As for the experimental part:
FIG. 8: VEGF111 is expressed in blood cells treated with camptothecin (1 μM) ex vivo. Double arrowhead: internal standard. Vertical arrow indicates amplification products of VEGF111.
Blood was collected from a healthy donor, and cells were collected by centrifugation. Red blood cells were lyzed and the remaining cells were treated or not with camptothecin (1 μM) for 6 and 24 hours. Untreated cells were also investigated directly after collection. Total VEGF mRNA was measured by RT-PCR as described.

In the case of `CC[C@@]1(O)C(=O)OCc2c1cc1n(c2=O)Cc2cc3ccccc3nc2-1` [Camptothecin], the “expression of VEGF111” value in the test with VEGF111 mRNA [1] (1 μM, HaCat cells and MCF7 cells, by 24 hours, level similar to or higher than after UV-irradiation) is recorded as “induced”. In the test on VEGF111 mRNA [1] (MCF7 cells, camptothecin), the “time after which VEGF111 induction reached a plateau” value stood at 24 h and the “time after which VEGF111 induction was already detected” value was determined as 6 h. Also, the “VEGF111 induction, dose-response” value with VEGF111 mRNA [1] (MCF7 cells, with the concentration of camptothecin) is recorded as “progressively increased”. In the test with VEGF111 mRNA [2], the “VEGF111 mRNA in blood cells” value is “expressed”.
